{"source": "ChEMBL document CHEMBL1201862", "about": "“PubChem BioAssay data set” (2004)", "assay_in_all_cases": "DTP human tumour cell line panel, 48 h", "key": {"HCT-116": {"tested_on": "HCT-116"}, "M14": {"tested_on": "M14"}, "HL-60": {"tested_on": "HL-60"}, "Malme-3M": {"tested_on": "Malme-3M"}, "UO-31": {"tested_on": "UO-31"}, "NCI-H522": {"tested_on": "NCI-H522"}, "IGROV-1": {"tested_on": "IGROV-1"}, "OVCAR-5": {"tested_on": "OVCAR-5"}, "MOLT-4": {"tested_on": "MOLT-4"}, "OVCAR-4": {"tested_on": "OVCAR-4"}, "NCI-H23": {"tested_on": "NCI-H23"}, "A549": {"tested_on": "A549"}, "786-0": {"tested_on": "786-0"}, "NCI-H226": {"tested_on": "NCI-H226"}, "RXF 393": {"tested_on": "RXF 393"}, "EKVX": {"tested_on": "EKVX"}, "SN12C": {"tested_on": "SN12C"}, "SK-OV-3": {"tested_on": "SK-OV-3"}}, "note": "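Compound exposure: 48 hours, 5 concentrations, 96-well plates. Abbreviation: GI50, concentration required for 50% inhibition of growth.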 Calls of active or inactive are those of the source. Cut-off read from the data, not from the text of the source: active = GI50 up to about 1.1 µM and inactive = higher."}
{"smiles": "C=CCOC1CC(n2cnc3c(N)ncnc32)OC1CO", "note": "(configuration not stated)", "values": [{"measurement": "GI50", "setting": "HCT-116", "value": "> 100 µM (inactive)"}, {"measurement": "GI50", "setting": "M14", "value": "> 100 µM (inactive)"}, {"measurement": "GI50", "setting": "HL-60", "value": "> 100 µM (inactive)"}, {"measurement": "GI50", "setting": "Malme-3M", "value": "> 100 µM (inactive)"}, {"measurement": "GI50", "setting": "UO-31", "value": "> 100 µM (inactive)"}, {"measurement": "GI50", "setting": "NCI-H522", "value": "> 100 µM (inactive)"}, {"measurement": "GI50", "setting": "IGROV-1", "value": "> 100 µM (inactive)"}, {"measurement": "GI50", "setting": "OVCAR-5", "value": "> 100 µM (inactive)"}, {"measurement": "GI50", "setting": "MOLT-4", "value": "> 100 µM (inactive)"}, {"measurement": "GI50", "setting": "OVCAR-4", "value": "> 100 µM (inactive)"}, {"measurement": "GI50", "setting": "NCI-H23", "value": "> 100 µM (inactive)"}, {"measurement": "GI50", "setting": "A549", "value": "> 100 µM (inactive)"}, {"measurement": "GI50", "setting": "786-0", "value": "> 100 µM (inactive)"}, {"measurement": "GI50", "setting": "NCI-H226", "value": "> 100 µM (inactive)"}]}
{"smiles": "COc1ccc2c(c1)[n+]([O-])c(C(=O)C/C(=N\\NC(=O)C[N+](C)(C)C)C(=O)Nc1cc(Cl)ccc1Cl)c(C)[n+]2[O-]", "values": [{"measurement": "GI50", "setting": "HCT-116", "value": "> 100 µM (inactive)"}, {"measurement": "GI50", "setting": "M14", "value": "> 100 µM (inactive)"}, {"measurement": "GI50", "setting": "RXF 393", "value": "> 100 µM (inactive)"}, {"measurement": "GI50", "setting": "HL-60", "value": "88.3 µM (inactive)"}, {"measurement": "GI50", "setting": "Malme-3M", "value": "> 100 µM (inactive)"}, {"measurement": "GI50", "setting": "UO-31", "value": "> 100 µM (inactive)"}, {"measurement": "GI50", "setting": "NCI-H522", "value": "> 100 µM (inactive)"}, {"measurement": "GI50", "setting": "IGROV-1", "value": "> 100 µM (inactive)"}, {"measurement": "GI50", "setting": "EKVX", "value": "0.0891 µM (active)"}, {"measurement": "GI50", "setting": "SN12C", "value": "> 100 µM (inactive)"}, {"measurement": "GI50", "setting": "OVCAR-5", "value": "> 100 µM (inactive)"}, {"measurement": "GI50", "setting": "MOLT-4", "value": "> 100 µM (inactive)"}, {"measurement": "GI50", "setting": "OVCAR-4", "value": "> 100 µM (inactive)"}, {"measurement": "GI50", "setting": "NCI-H23", "value": "> 100 µM (inactive)"}, {"measurement": "GI50", "setting": "A549", "value": "> 100 µM (inactive)"}, {"measurement": "GI50", "setting": "786-0", "value": "> 100 µM (inactive)"}, {"measurement": "GI50", "setting": "NCI-H226", "value": "> 100 µM (inactive)"}]}
{"smiles": "COc1c2c(c3c(c1C1OC(C)[C@@H](C)O1)CC(C)(C)O3)C(=O)c1ccccc1C2=O", "note": "(some centres not stated)", "values": [{"measurement": "GI50", "setting": "HCT-116", "value": "42.7 µM (inactive)"}, {"measurement": "GI50", "setting": "M14", "value": "65 µM (inactive)"}, {"measurement": "GI50", "setting": "RXF 393", "value": "28 µM (inactive)"}, {"measurement": "GI50", "setting": "HL-60", "value": "13.5 µM (inactive)"}, {"measurement": "GI50", "setting": "Malme-3M", "value": "64.6 µM (inactive)"}, {"measurement": "GI50", "setting": "UO-31", "value": "36.7 µM (inactive)"}, {"measurement": "GI50", "setting": "NCI-H522", "value": "> 10 µM (inactive)"}, {"measurement": "GI50", "setting": "IGROV-1", "value": "> 100 µM (inactive)"}, {"measurement": "GI50", "setting": "EKVX", "value": "> 100 µM (inactive)"}, {"measurement": "GI50", "setting": "SN12C", "value": "35.6 µM (inactive)"}, {"measurement": "GI50", "setting": "SK-OV-3", "value": "13.9 µM (inactive)"}, {"measurement": "GI50", "setting": "OVCAR-5", "value": "> 100 µM (inactive)"}, {"measurement": "GI50", "setting": "OVCAR-4", "value": "42 µM (inactive)"}, {"measurement": "GI50", "setting": "NCI-H23", "value": "48.2 µM (inactive)"}, {"measurement": "GI50", "setting": "A549", "value": "73.3 µM (inactive)"}, {"measurement": "GI50", "setting": "786-0", "value": "72.9 µM (inactive)"}, {"measurement": "GI50", "setting": "NCI-H226", "value": "> 100 µM (inactive)"}]}
{"smiles": "CC(=O)O/N=C/c1cc2c(cc1Br)OCO2", "values": [{"measurement": "GI50", "setting": "RXF 393", "value": "> 349 µM (inactive)"}, {"measurement": "GI50", "setting": "HL-60", "value": "> 349 µM (inactive)"}, {"measurement": "GI50", "setting": "Malme-3M", "value": "> 349 µM (inactive)"}, {"measurement": "GI50", "setting": "NCI-H522", "value": "185 µM (inactive)"}, {"measurement": "GI50", "setting": "IGROV-1", "value": "> 349 µM (inactive)"}, {"measurement": "GI50", "setting": "EKVX", "value": "> 349 µM (inactive)"}, {"measurement": "GI50", "setting": "SN12C", "value": "> 349 µM (inactive)"}, {"measurement": "GI50", "setting": "SK-OV-3", "value": "> 349 µM (inactive)"}, {"measurement": "GI50", "setting": "OVCAR-5", "value": "> 349 µM (inactive)"}, {"measurement": "GI50", "setting": "MOLT-4", "value": "> 349 µM (inactive)"}, {"measurement": "GI50", "setting": "NCI-H23", "value": "> 349 µM (inactive)"}, {"measurement": "GI50", "setting": "A549", "value": "> 349 µM (inactive)"}, {"measurement": "GI50", "setting": "786-0", "value": "> 349 µM (inactive)"}]}
{"smiles": "C/C(=N\\NC(=S)N1CCN(C)CC1)c1nc2cccnc2[nH]1", "values": [{"measurement": "GI50", "setting": "M14", "value": "> 100 µM (inactive)"}, {"measurement": "GI50", "setting": "HL-60", "value": "> 100 µM (inactive)"}, {"measurement": "GI50", "setting": "Malme-3M", "value": "> 100 µM (inactive)"}, {"measurement": "GI50", "setting": "UO-31", "value": "32 µM (inactive)"}, {"measurement": "GI50", "setting": "NCI-H522", "value": "> 100 µM (inactive)"}, {"measurement": "GI50", "setting": "IGROV-1", "value": "> 100 µM (inactive)"}, {"measurement": "GI50", "setting": "EKVX", "value": "> 100 µM (inactive)"}, {"measurement": "GI50", "setting": "SN12C", "value": "> 100 µM (inactive)"}, {"measurement": "GI50", "setting": "SK-OV-3", "value": "> 100 µM (inactive)"}, {"measurement": "GI50", "setting": "OVCAR-5", "value": "> 100 µM (inactive)"}, {"measurement": "GI50", "setting": "MOLT-4", "value": "> 100 µM (inactive)"}, {"measurement": "GI50", "setting": "OVCAR-4", "value": "> 100 µM (inactive)"}, {"measurement": "GI50", "setting": "NCI-H23", "value": "> 100 µM (inactive)"}, {"measurement": "GI50", "setting": "A549", "value": "> 100 µM (inactive)"}, {"measurement": "GI50", "setting": "786-0", "value": "> 100 µM (inactive)"}, {"measurement": "GI50", "setting": "NCI-H226", "value": "> 100 µM (inactive)"}]}
